For test [1], the system named is ICAM-1 and VCAM-1. Kind of test: Histology and ICAM-1/VCAM-1 immunohistochemistry in organs of LPS-treated mice. In kind it is in vivo, mouse. The procedure: Histology: Tissue from liver, lung, kidney and heart from normal, LPS and LPS plus C-10 treated mice (experiment in Table 5), were fixed in 4%-PBS-formalin overnight. They then were dehydrated serially in alcohols 50%-70%-90%-100%, clarified in chloroform, and embedded in paraffin. Five (5) sections were obtained and mounted on Vectabond™ (Vector Laboratories, Inc. Burlingame, Calif.) pretreated slides. The sections were incubated twice (10 minutes each) in xylol and re-hydrated by serial alcohol treatments, 100%-90-70-50, followed by distilled water. Tissues were stained with Hematoxylin-Eosin using standard protocols, mounted, and observed by optical microscopy in a double blind manner.
Immunohistochemistry (IHC): C10 (pMMI) effects on the over-expression of adhesion molecules induced by LPS were studied in different organs. […] At 18 h after LPS injection, mice were sacrificed and the heart, lung, liver spleen and kidney were removed and fixed in 4% formalin in PBS. The tissue was then dehydrated in serial alcohols (50% v/v, twice; 70% v/v, twice; 80% v/v, twice; 95% v/v, twice; and 100% v/v, twice), cleared in pure chloroform, embedded in paraffin and sectioned ([…] thickness) and mounted on Vectabond™ (Vector Laboratories, Inc. Burlingame, Calif.) pre-treated slides. […]

Test [2] deals with horses. Kind of test: Peritonitis and endotoxic shock in horses induced by intraperitoneal caecal fluid. Format: in vivo, horse.
Test [3] concerns iNOS. Kind of test: LPS-induced iNOS mRNA in RAW 264.7 macrophages (RT-PCR). In kind it is cell-based, mouse. The settings on record: RAW 264.7, LPS 3 hours, C10 in DMSO or vehicle B. How it is done:
In macrophages NO production occurs as a result of LPS induction of iNOS (C. Bogdan, Nat Immunol, 2:907-16 (2001)) and is a process that depends on autocrine signaling by IFN-β. We used standard reverse transcriptase polymerase chain reaction to detect the inhibition of LPS induced iNOS transcription in the presence of C10 (FIG. 13A). The RAW 264.7 cells were treated with LPS in the presence of C10, its vehicle control, DMSO, or another excipient vehicle (compound B; see Table 8) for 3 hours. Table 8 establishes that C10 is effective in vivo in the mouse toxic shock model and in FRTL-5 cell assays in vitro when solubilized in water in the presence of the compound B excipient, i.e., water soluble forms of C10 are effective in both in vivo and in vitro just as C10 in DMSO. In the presence of DMSO control (FIG. 13A, lane 4) or vehicle B only (FIG. 13A, lane 5) little or no iNOS reduction was detected respectively when compared to LPS only (FIG. 13A lane 3).
Standard reverse transcriptase PCR for INOS: RNA was isolated as described above and treated with DNAse a described above. […] of DNA free RNA was then reverse transcribed with the Advantage® RT-for PCR kit (BD Biosciences, Palo Alto, Calif.) in a total volume of 20 μl. Five μl of cDNA was then amplified using ExTaq™ DNA polymerase (Takara, Madison, Wis.) in a reaction volume of 25 μl. […]

Test [4] deals with Stat1. Kind of test: Activated Stat1 in kidney and lung lysates of LPS-treated mice (immunoblot). Format: in vivo, mouse. Conditions: LPS-treated mice of Table 5. The text has this: In order to more definitively determine if LPS-induced IFN-β signaling and LPS-induced increases in IRF-1 and IP-10 in vivo might be attenuated by an effect of C10 treatment on Stat1 activation, protein phosphorylation levels of Stat1 in whole tissue lysates were examined in mice from Table 5. […] In contrast neither LPS nor C10 had any effect on total Stat1 in these tissues (FIG. 8, bottom blots). […] Based on literature studies described in immune cells and results we have described in nonimmune cells (FIGS. 4-6; Tables 2, 3), it is reasonable to state that C10 blocks Stat1/IRF-1 signals in vivo as well as in vitro, this is important in the therapy of toxic shock where these genes are not only involved but critical to disease expression. C10 therapy is thus important in reducing pathologic changes in multiple tissues whose organ failure is known to contribute to the signs and symptoms of toxic shock.
Immunoblot analysis of RAW 264.7 and mouse tissues: Nuclear and cytoplasmic extracts for RAW cells were prepared using NE-PER® extraction reagents (Pierce, Rockford, Ill.) in the presence of a protease inhibitor mixture (PMSF, leupeptin, and pepstatin A). […] Binding of HRP-conjugated goat anti-rabbit Ab (sc-2054; Santa Cruz Biotechnology, Inc., Santa Cruz, Calif.) was detected using the ECLplus Western Blotting Detection System (Amersham Biosciences, Piscataway, N.J.).
(In general: In western blotting, separated proteins are transferred to a membrane and probed.)

As to `Cn1c(-c2ccccc2)cnc1S` [Compound C10, 5-Phenylmethimazole], in test [1] (H&E, 18 hours), the “microcirculatory damage and inflammatory cellular infiltration in lung” value is recorded as “ameliorated”. Moreover, in test [1] (immunohistochemistry), the “ICAM-1 and VCAM-1 over-expression on endothelial cells (lung, liver)” value was “suppressed”. The molecule further gave an effectiveness of treatment in test [2] (10 animals so treated) of 100%. For the same molecule, the “time to disappearance of signs of collapse or depression after the C-10 bolus” value in test [2] (C10 2 mg/kg intravenous bolus at 12 hours) was no more than 15 min. For the same molecule, the survival rate in test [2] (endotoxemia and shock due to septic peritonitis, intraperitoneal inoculation of intestinal flora) came out at 100%. Besides, the “LPS induced iNOS mRNA” value in test [3] is “strong reduction”. Further, the “activated (phosphorylated) Stat1 protein levels in kidney and lung” value in test [4] is given as “reduced to basal”.

The record behind these values is patent publication US9326972B2, “Use of phenylmethimazoles, methimazole derivatives, and tautomeric cyclic thiones for the treatment of autoimmune/inflammatory diseases associated with toll-like receptor overexpression” (Ohio University, priority 2004, dated 2016).
